The results in this text go back to US10450566B2, “Compounds for inducing anti-tumor immunity and methods thereof” (Cornell University, priority 2013, dated 2019).

The structures appear in SMILES notation.

What all share (type): cell-based, mouse
For assay [1], the system named is XBP1. Briefly: XBP1 splicing and ER stress/lipid gene expression in naïve sDCs by RT-PCR/RT-qPCR. Here is the method:
(§1) Murine recombinant cytokines were purchased from Peprotech. Cobalt chloride, Tunicamycin (used at 1 μg/ml), Tiron (used at 100-500 μM) and Vitamin E (α-tocopherol, used at 50-100 μM) were from Sigma. DCFDA staining was utilized for intracellular ROS detection (Abcam). Purified 4-HNE was obtained from Cayman Chemical and 4-HNE-protein adducts in ascites samples and DCs were detected and quantified through competitive ELISA (Cell Biolabs). TOFA (Cayman Chemical) was used at a final concentration of 5 μg/ml to inhibit fatty acid synthesis in DCs by blocking the synthesis of malonyl-CoA by acetyl-CoA carboxylase. The IRE-1α-specific inhibitor 4μ8c (Millipore) was used at a final concentration of 10 μM.
Total RNA from human samples was isolated using the miRVANA miRNA isolation Kit (Life Technologies). RNA from mouse samples was isolated using the Qiazol reagent (Qiagen). […] of RNA were used to generate cDNA using the High Capacity cDNA Reverse Transcription Kit (Life Technologies). Human and mouse Xbp1 splicing assays were performed as described (Lee et al., 2003a; Martinon et al., 2010) using conventional Reverse Transcription PCR (RT-PCR) and primers shown in Table 1. Gene expression analysis was done via Reverse Transcription quantitative PCR (RT-qPCR) using a Stratagene Mx3005 instrument and SYBR green I (Life Technologies). […] All primers used in this study are described in Table 1.
One goal of the present invention was to investigate how the tumor microenvironment influences the functional status of XBP1 in DCs. In particular, one aim of the present invention was to investigate whether cancer-derived factors could participate in triggering ER stress and XBP1 activation in tumor-infiltrating DCs, and determine whether this process could impact the detrimental function of these innate immune cells in hosts with ovarian cancer. […] In particular, naïve sDCs were isolated and stimulated for 24h with cytokines (e.g., IL-10, TGF-β, VEGFα, KC, CCL3, IL-6) at concentrations ranging from 5 ng/ml to 25 ng/ml (FIG. 3A-D). Cells were also exposed for 24 hours to increasing concentrations of cobalt chloride (CoCl2), a chemical inducer of the HIF1α pathway that mimics low oxygen conditions (Piret et al. 2002) (FIG. 3E-F). Splicing and upregulation of XBP1 was determined by RT-qPCR analysis (FIG. 3).
(§2) Whether these reactive aldehyde byproducts could trigger ER stress in DCs was investigated. […] Accordingly, intracellular 4-HNE-protein adducts were also readily found in tDCs isolated from these malignant samples (FIG. 4D). 4-HNE generation in mouse tDCs exposed to cell-free ovarian cancer ascites decreased upon exposure to the common antioxidant Vitamin E (FIG. 4E).
A general note: Quantitative PCR measures a nucleic acid by following its amplification.

The subject of assay [2] is 4-HNE-protein adducts. In words: 4-HNE-protein adducts in DCs by competitive ELISA. How it is done: as §1, §2
(In general: In an ELISA, binding on a coated surface is turned into a signal by an enzyme label.)

Assay [3] has as its system tDCs. In words: Intracellular lipid content of tDCs by BODIPY 493/503 staining and flow cytometry. The settings on record: tDCs with 25% cell-free ovarian cancer ascites, 24h, Bodipy493/503. Here is the method:
FIG. 9G: graphically depicts the intracellular lipid content of tDCs incubated in vitro with 25% cell-free ovarian cancer ascites supernatants in the presence of the indicated inhibitors. Intracellular lipid content was assessed 24h later via Bodipy493/503 staining. Data are representative of 3 independent experiments with similar results. #P<0.05 compared with control tDC incubated in the absence of cell-free ascites supernatants. *P<0.05 compared with ascites-exposed tDC but left untreated.
as §1
Intracellular lipid content in DCs was evaluated via flow cytometry using 4,4-Difluoro-1,3,5,7,8-Pentamethyl-4-Bora-3a,4a-Diaza-s-Indacene (BODIPY 493/503, Life Technologies) as previously reported (Herber et al., 2010). […] Cells were washed twice with 1×PBS and stained with 500 μl of BODIPY 493/503 at […] in PBS for 15 min at room temperature in the dark. Cells were washed twice and analyzed by flow cytometry. BODIPY 493/503 staining was detected in the PE channel. For intracellular cytokine staining, 5×10^6 cells isolated from malignant peritoneal wash samples of ovarian cancer-bearing mice were stimulated for 6h in 10% FBS complete RPMI containing PMA (Calbiochem), lonomycin (Calbiochem) and Brefeldin A (BioLegend). […] Flow cytometry data was analyzed using FlowJo version 9 or 10.
Background: In flow cytometry, cells or beads pass a laser one at a time.

Assay [4] concerns tDCs. In words: In vitro antigen presentation: OVA-pulsed tDCs cocultured with CFSE-labeled OT-1 T cells. The note with it: wild type tDC pre-treated, full-length OVA, cell-free malignant ascites. How it is done: For in vitro antigen presentation experiments, tDC or sDC were sorted from the peritoneal cavity or spleen of XBP1^f/f or XBP1^f/f CD11c-Cre female mice bearing ID8-Defb29/Vegf-A ovarian tumors for 4 weeks (FIG. 1). tDCs were pulsed for overnight 50 μg/ml of full-length endotoxin-free OVA (SIGMA, Grade VII) in the presence or absence of Vitamin E (50 μg/ml) in media containing 25% cell-free ovarian cancer ascites supernatants. DCs were washed twice and cocultured for 3 days with CFSE-labeled CD8^+ T cells immunopurified from OT-1 mice at a 1:10 (DC to T cell) ratio, as previously described (Scarlett et al., 2009).

The mark [5] stands for this setting: naïve sDCs exposed for 3h to increasing amounts.

Take `CCCCCC(O)/C=C/C=O` (stereo not drawn) [4-HNE, 4-hydroxy-trans-2-nonenal]: in assay [1] (setting [5]), the “BiP and CHOP gene expression (general ER stress response markers)” value is listed as “robust induction”; the ERdj4 gene expression result is “upregulation”; the “splicing of the Xbp1 mRNA” value is “rapidly triggered splicing of the Xbp1 mRNA”. In assay [1] (naïve sDCs stimulated for 3h), the “expression of lipid biosynthetic genes Agpat6, Fasn and Lpar1” value is “rapidly upregulated”. Moreover, the “formation of intracellular 4-HNE-protein adducts” value in assay [2] (naïve sDCs, increasing concentrations of purified 4-HNE) is “efficiently formed covalent adducts with intracellular proteins”.

With `Cc1cc(=O)oc2c(C=O)c(O)ccc12` [4μ8c], the “intracellular lipid content of tDCs” value in assay [3] is “restricted the observed ascites-induced lipid biogenesis”.

Consider `CCCCCCCCCCCCCCOc1ccc(C(=O)O)o1` [TOFA], for which, in assay [3], the “intracellular lipid content of tDCs” value is given as “prevented”.

`Cc1c(C)c2c(c(C)c1O)CC[C@@](C)(CCC[C@H](C)CCC[C@H](C)CCCC(C)C)O2` [Vitamin E, α-tocopherol]: in assay [2] (mouse tDCs exposed to cell-free ovarian cancer ascites), the “4-HNE generation (intracellular 4-HNE-protein adducts) in tDCs” value is on record as “decreased”. Further, the “intracellular lipid content of tDCs” value in assay [3] was “reduced intracellular lipid content”. Besides, the “antigen-presenting capacity (expansion of OT-1 T cells)” value in assay [4] was “phenocopied the enhanced antigen-presenting capacity exhibited by XBP1-deficient tDCs”.
